Test results published in publication PMC12320245 (International Journal of Biological Sciences, 2025).

Tested on: astrocytes
Assay: Lysosomal pH detection (DND-189 fluorescence)
Format: cell-based

CO/C1=C\C(C)=C\[C@@H](C)[C@@H](O)[C@@H](C)C/C(C)=C/C=C/[C@H](OC)[C@@H]([C@@H](C)[C@@H](O)[C@H](C)[C@@]2(O)C[C@@H](O)[C@H](C)[C@@H](C(C)C)O2)OC1=O [bafilomycin A1]
lysosomal pH (DND-189 fluorescence) (100 nM BafA1, 1-hour exposure): markedly alkalinized lysosomes

O=S(=O)(NCCNC/C=C/c1ccc(Br)cc1)c1cccc2cnccc12 [H-89]
lysosomal pH (DND-189 fluorescence), co-treatment with PKA inhibitor (BafA1 + AMX + H-89): abolished the lysosomal acidification effect of AMX

Nc1ncnc2c1ncn2[C@@H]1O[C@@H]2COP(=O)(O)O[C@H]2[C@H]1O [cAMP, cyclic adenosine monophosphate]
lysosomal pH (DND-189 fluorescence), reversal of BafA1 effect (300 μM cAMP with 100 nM BafA1): effectively reversed BafA1-induced alkalization
